Reference: EP4389751A1, “HETEROCYCLIC COMPOUNDS AND USES THEREOF” (Kumquat Biosciences Inc., priority 2021, dated 2024)
Like-named read-outs stand apart in the source and are kept apart here.

How the values were obtained:
A549 cells = assay: Cell proliferation assay (CellTiter-Glo), K-Ras G12S cells; type: cell-based; conditions: for IC50: Homo sapiens
Description: A549 (ATCC CRL-185) and LS123 (ATCC CRL-255) cell lines comprise a G12S mutation and can be used to assess Ras cellular signaling in vitro, e.g., in response to the compounds herein. A549 culture medium is prepared with RPMI-1640 and 10% heat-inactivated FBS. LS123 culture medium is prepared with RPMI-1640 and 10% heat-inactivated FBS. A CellTiter-Glo (CTG) luminescent based assay (Promega) is used to assess growth of the cells, as a measurement of the ability of the compounds herein to inhibit Ras signaling in the cells. The cells (e.g., 800 per well) are seeded in their respective culture medium in standard tissue culture-treated 384-well format plates (Falcon #08-772-116) or ultra-low attachment surface 384-well format plates (S-Bio # MS-9384WZ). The day after plating, cells are treated with a dilution series (e.g., a 10 point 3-fold dilution series) of the compounds herein (e.g., approximately 40 µl final volume per well). Cell viability can be monitored (e.g., approximately 6 days later) according to the manufacturer's recommended instructions, where the CellTiter-Glo reagent is added (e.g., approximately 10 µl), vigorously mixed, covered, and placed on a plate shaker (e.g., approximately for 20 min) to ensure sufficient cell lysis prior to assessment of luminescent signal. The IC50 values are determined using the four parameter fit. The resulting IC50 value is a measurement of the ability of the compounds herein to reduce cell growth of Ras-driven cells (e.g., tumor cell lines) in vitro and/or in vivo.

K-Ras G12S = target: T1, K-Ras G12S (Homo sapiens, UniProt P01116, G12S); assay: HTRF assay of the K-Ras / SOS1 interaction; type: biochemical; conditions: IC50 (against K-Ras G12D) to IC50 (against K-Ras G12S)
T1 construct: made in house; host or cells: E. coli (e.g., BL21 (DE3))
Method in brief: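 GST-K-Ras G12S with anti-GST-Eu donor and His-hSOS1 with anti-6His-XL665 acceptor in ~5 mM HEPES pH 7.4, ~150 mM NaCl, 1 mM DTT, 0.05% BSA, 0.0025% Igepal. Read after ~10 min or longer; IC50 from 665/620 nm ratio, duplicates at 10 µM down to 0.01 µM.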

GP2D cells = assay: Cell proliferation assay (CellTiter-Glo), K-Ras G12D cells; type: cell-based; conditions: read-out: Inhibition of GP2D Cells (IC50)
Method in brief: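 GP2D (K-Ras G12D) cells seeded in DMEM with 2 mM glutamine and 10% FBS, then dosed next day with a dilution series (e.g., 9-point 3-fold). Viability read by CellTiter-Glo luminescence after about 5 days. IC50 from four-parameter fit.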

[1] = A549, A549 cells (K-Ras G12S), bin 500 nM to 5 µM, read-out: Inhibition of A549 Cells (IC50)
[2] = A549, read-out: Inhibition of A549 Cells (IC50)
[3] = A549, A549 cells (K-Ras G12S), bin ≤ 500 nM, read-out: Inhibition of A549 Cells (IC50)

T1 sequence (P01116 1-188 isoform P01116-2 G12S): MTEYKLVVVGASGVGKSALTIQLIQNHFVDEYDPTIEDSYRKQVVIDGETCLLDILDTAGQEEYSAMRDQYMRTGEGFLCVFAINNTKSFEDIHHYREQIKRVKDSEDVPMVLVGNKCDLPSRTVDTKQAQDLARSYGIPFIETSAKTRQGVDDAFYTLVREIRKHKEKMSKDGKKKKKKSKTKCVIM

| Compound | IC50 (A549 cells; [1]) | Ratio of IC50 KRAS G12D vs. IC50 KRAS G12S (K-Ras G12S) | IC50 (GP2D cells; GP2D cells (K-Ras G12D)) | IC50 (A549 cells; [2]) | IC50 (GP2D cells; GP2d) | IC50 (A549 cells; [3]) | ratio of IC50 against a G12D cell line to IC50 against a G12S cell line (A549 cells; K-Ras G12D cell line such as GP2D relative to K-Ras G12S cell line such as A549, greater than 1, 2, 3, 4, 5, 10, 15 or even greater, 8640 min) |
| --- | --- | --- | --- | --- | --- | --- | --- |
| N#Cc1c(N)sc2c(F)ccc(-c3c(Cl)cc4c(N5CC6CCC(C5)N6C(=O)n5cc(C(F)(F)F)cn5)nc(OC[C@@]56CCCN5C[C@H](F)C6)nc4c3F)c12 [Compound A122, 2-amino-4-(6-chloro-8-fluoro-2-(((2R,7aS)-2-fluorotetrahydro-1H-pyrrolizin-7 a(5H)-yl)methoxy)-4-(8-(4-(trifluoromethyl)-1H-pyrazole-1-carbonyl)-3,8-diazabicyclo[3.2.1]octan-3-yl)quinazolin-7-yl)-7-fluorobenzo[b]thiophene-3-carbonitrile] | 500 to 5000 nM | A (A: indicates that the ratio of IC50 against KrasG12D vs. IC50 against KrasG12S is 1-fold or greater) | ≤ 1000 nM |  |  |  |  |
| Nc1nc2c(-c3c(Cl)cc4c(N5CC6CCC(C5)N6C(=O)n5ccnn5)nc(OC[C@@]56CCCN5C[C@H](F)C6)nc4c3F)ccc(F)c2s1 [Compound A153, (3-(7-(2-amino-7-fluorobenzo[d]thiazol-4-yl)-6-chloro-8-fluoro-2-(((2R,7aS)-2-fluorotetrahydro-1H-pyrrolizin-7a(5H)-yl)methoxy)quinazolin-4-yl)-3,8-diazabicyclo[3.2.1]octan-8-yl)(1H-1,2,3-triazol-1-yl)methanone] |  | A (A: indicates that the ratio of IC50 against KrasG12D vs. IC50 against KrasG12S is 1-fold or greater) |  | 500 to 5000 nM | ≤ 1000 nM |  |  |
| C#Cc1c(F)ccc2cc(O)cc(-c3ncc4c(N5CCOCC6(CN(C(=O)n7cncn7)C6)C5)nc(OC[C@@]56CCCN5C[C@H](F)C6)nc4c3F)c12 [Compound A158, (9-(7-(8-ethynyl-7-fluoro-3-hydroxynaphthalen-1-yl)-8-fluoro-2-(((2R,7aS)-2-fluorotetrahydro-1H-pyrrolizin-7a(5H)-yl)methoxy)pyrido[4,3-d]pyrimidin-4-yl)-6-oxa-2,9-diazaspiro[3.6]decan-2-yl)(1H-1,2,4-triazol-1-yl)methanone] | 500 to 5000 nM | A (A: indicates that the ratio of IC50 against KrasG12D vs. IC50 against KrasG12S is 1-fold or greater) | 1000 to 10000 nM |  |  |  |  |
| Cc1ncn(C(=O)N2CCCC(Oc3nc(OC[C@@]45CCCN4C[C@H](F)C5)nc4c(F)c(-c5ccc(F)c6sc(N)c(C#N)c56)c(Cl)cc34)CC2)n1 (stereo partly drawn) [Compound A174, 2-amino-4-(6-chloro-8-fluoro-2-(((2R,7aS)-2-fluorotetrahydro-1H-pyrrolizin-7 a(5H)-yl)methoxy)-4-((1-(3-methyl-1H-1 ,2,4-triazole-1-carbonyl)azepan-4-yl)oxy)quinazolin-7-yl)-7-fluorobenzo[b]thiophene-3-carbonitrile] | 500 to 5000 nM | A (A: indicates that the ratio of IC50 against KrasG12D vs. IC50 against KrasG12S is 1-fold or greater) | 1000 to 10000 nM |  |  |  |  |
| N#Cc1c(N)sc2c(F)ccc(-c3c(Cl)cc4c(N5CC6CCN(C(=O)n7cncn7)C6C5)nc(OC[C@@]56CCCN5C[C@H](F)C6)nc4c3F)c12 (stereo partly drawn) [Compound A180, 4-(4-(1-(1H-1,2,4-triazole-1-carbonyl)hexahydropyrrolo[3,4-b]pyrrol-5(1H)-yl)-6-chloro-8-fluoro-2-(((2R,7aS)-2-fluorotetrahydro-1H-pyrrolizin-7a(5H)-yl)methoxy)quinazolm-7-yl)-2-amino-7-fluorobenzo[b]thiophene-3-carbonitrile] |  | A (A: indicates that the ratio of IC50 against KrasG12D vs. IC50 against KrasG12S is 1-fold or greater) | 1000 to 10000 nM |  |  | ≤ 500 nM |  |
| N#Cc1c(N)sc2c(F)ccc(-c3c(Cl)cc4c(N5CCCC6C5CCN6C(=O)n5cncn5)nc(OC[C@@]56CCCN5C[C@H](F)C6)nc4c3F)c12 (stereo partly drawn) [Compound A184, 4-(4-(1-(1H-1,2,4-triazole-1-carbonyl)octahydro-4H-pyrrolo[3,2-b]pyridin-4-yl)-6-chloro-8-fluoro-2-(((2R,7aS)-2-fluorotetrahydro-1H-pyrrolizin-7a(5H)-yl)methoxy)quinazolin-7-yl)-2-amino-7-fluorobenzo[b]thiophene-3-carbonitrile] |  | A (A: indicates that the ratio of IC50 against KrasG12D vs. IC50 against KrasG12S is 1-fold or greater) | ≤ 1000 nM |  |  | ≤ 500 nM | greater than 1 |
| Cc1ncn(C(=O)N2C3CCC2CN(c2nc(OC[C@@]45CCCN4C[C@H](F)C5)nc4c(F)c(-c5ccc(F)c6sc(N)c(C#N)c56)c(Cl)cc24)C3)n1 [Compound A186, 2-amino-4-(6-chloro-8-fluoro-2-(((2R,7aS)-2-fluorotetrahydro-1H-pyrrolizin-7a(5H)-yl)methoxy)-4-(8-(3-methyl-1H-1,2,4-triazole-1-carbonyl)-3,8-diazabicyclo[3.2.1]octan-3-yl)quinazolin-7-yl)-7-fluorobenzo[b]thiophene-3-carbonitrile] |  | A (A: indicates that the ratio of IC50 against KrasG12D vs. IC50 against KrasG12S is 1-fold or greater) |  | 500 to 5000 nM | ≤ 1000 nM |  |  |
| Cc1nc(C)n(C(=O)N2CC3(CCCN(c4nc(OC[C@@]56CCCN5C[C@H](F)C6)nc5c(F)c(-c6ccc(F)c7sc(N)c(C#N)c67)c(Cl)cc45)C3)C2)n1 [Compound A190, 2-amino-4-(6-chloro-4-(2-(3,5-dimethyl-1H-1,2,4-triazole-1-carbonyl)-2,6-diazaspiro[3.5]nonan-6-yl)-8-fluoro-2-(((2R,7aS)-2-fluorotetrahydro-1H-pyrrolizin-7a(5H)-yl)methoxy)quinazolin-7-yl)-7-fluorobenzo[b]thiophene-3-carbonitrile] | 500 to 5000 nM | A (A: indicates that the ratio of IC50 against KrasG12D vs. IC50 against KrasG12S is 1-fold or greater) | 1000 to 10000 nM |  |  |  |  |
| Nc1nc2c(-c3c(Cl)cc4c(N5C[C@H]6CC[C@@H](C5)N6C(=O)Nc5ccncn5)nc(OC[C@@]56CCCN5C[C@H](F)C6)nc4c3F)ccc(F)c2s1 [Compound A223, (1R,5S)-3-(7-(2-amino-7-fluorobenzo[d]thiazol-4-yl)-6-chloro-8-fluoro-2-(((2R,7aS)-2-fluorotetrahydro-1H-pyrrolizin-7a(5H)-yl)methoxy)quinazolin-4-yl)-N-(pyrimidin-4-yl)-3,8-diazabicyclo[3.2. 1]octane-8-carboxamide] |  | A (A: indicates that the ratio of IC50 against KrasG12D vs. IC50 against KrasG12S is 1-fold or greater) |  | 500 to 5000 nM | ≤ 1000 nM |  |  |
| Nc1nc2c(-c3c(Cl)cc4c(N5CCC6(CC5)CN(C(=O)n5cncn5)C6)nc(OC[C@@]56CCCN5C[C@H](F)C6)nc4c3F)ccc(F)c2s1 [Compound A233, (7-(7-(2-amino-7-fluorobenzo[d]thiazol-4-yl)-6-chloro-8-fluoro-2-(((2R,7aS)-2-fluorotetrahydro-1H-pyrrolizin-7a(5H)-yl)methoxy)quinazolin-4-yl)-2,7-diazaspiro[3.5]nonan-2-yl)(1H-1,2,4-triazol-1-yl)methanone] | 500 to 5000 nM | A (A: indicates that the ratio of IC50 against KrasG12D vs. IC50 against KrasG12S is 1-fold or greater) | 1000 to 10000 nM |  |  |  |  |
| Nc1nc2c(-c3c(Cl)cc4c(N5CC6CCC(C5)N6C(=O)n5ccnc5Cl)nc(OC[C@@]56CCCN5C[C@H](F)C6)nc4c3F)ccc(F)c2s1 [Compound A242, (3-(7-(2-amino-7-fluorobenzo[d]thiazol-4-yl)-6-chloro-8-fluoro-2-(((2R,7aS)-2-fluorotetrahydro-1H-pyrrolizin-7a(5H)-yl)methoxy)quinazolin-4-yl)-3,8-diazabicyclo[3.2.1]octan-8-yl)(2-chloro-1H-imidazol-1-yl)methanone] | 500 to 5000 nM | A (A: indicates that the ratio of IC50 against KrasG12D vs. IC50 against KrasG12S is 1-fold or greater) | ≤ 1000 nM |  |  |  |  |
